Broadly, the MIC is the least concentration at which growth counts as inhibited. For orientation: IC50 means the concentration at which inhibition is half-maximal.

Converted amounts (≈) assume the structure as drawn. Where two headings read alike, the source gives them in different places.

Assay [1] has as its system M. tuberculosis strain H37Rv. The assay can be described thus: EUCAST broth microdilution MIC determination. The class given is cell-based, Mycobacterium tuberculosis.
Assay [2] concerns HEK-293 (human embryonic kidney 293) cells. The experiment in a line: MTT cytotoxicity assay, HEK-293. The class given is cell-based. Conditions: for IC50: Homo sapiens; for selectivity index SI, HEK-293 / selectivity indices (SI): ratio of IC50 to MIC; for selectivity indices (SI): both cell lines HEK-293 and CCL-1. On the procedure: (§1) The cytostatic activity of the investigational compounds was determined using a standard MTT-based colorimetric assay for evaluating cell viability. HEK-293 and CCL-1 cells were harvested and seeded (100 µL/well) in 96-well plates at a density of 3 × 10^5. Following a 24 h incubation, the cells were treated with serial dilutions of the tested compounds in the concentration range of 200.0–12.5 µM. Following an exposure time of 72 h, a filter-sterilized MTT substrate solution (5 mg/mL in PBS) was added to each well of the culture plate. A further 1–4 h incubation allowed the formation of purple insoluble precipitates of the formazan dye. The latter was dissolved in an isopropyl alcohol solution containing 5% formic acid for absorbance measurement at 550 nm. The collected absorbance values were blanked against MTT-and isopropanol solution and normalized to the mean value of the untreated control (100% cell viability).
(§2) Semi-logarithmic “dose-response” curves were computed using nonlinear regression in GraphPad Prism® 8.0. The antiproliferative potential of the studied compounds was rated according to the calculated half-maximal inhibitory concentrations (IC50 values).

Assay [3] has as its system CCL-1 mouse fibroblast cell line. The assay can be described thus: MTT cytotoxicity assay, CCL-1. The class given is cell-based. Conditions: for IC50: Mus musculus; for selectivity index SI, CCL-1: ratio of IC50 to MIC. On the procedure: as §1, §2
(In general: Tetrazolium assays rely on reduction of a dye to a coloured formazan, in cell work by metabolically active cells.)

Setting [4] is: M. tuberculosis strain H37Rv, lowest concentration without visual growth, read-out: MIC a.
Setting [5] is: Mycobacterium tuberculosis, H37RV, M. tuberculosis strain H37Rv, lowest concentration without visual growth, read-out: MIC a.
Where [6] appears, read: HEK293, 72 h, read-out: IC50 (µM) c HEK-293.
[7] abbreviates: Mycobacterium tuberculosis, H37RV, read-out: MIC a (µM).
[8] abbreviates: CCL-1, 72 h, read-out: IC50 (µM) b CCL-1.

As to “N’-[(E)-(3-hydroxy-4-methoxyphenyl)methylidene]benzenesulfonohydrazide [5h]”, the MIC in assay [1] (setting [4]) was 0.3203 µM.
Consider `O=S(=O)(N/N=C/c1c[nH]c2ccc(Cl)cc12)c1ccccc1` [5d, N’-[(E)-(5-chloro-1H-indol-3-yl)methylidene]benzenesulfonohydrazide], for which the MIC in assay [1] (setting [5]) worked out at 0.167 µM (≈ 0.0557 µg/mL).
`COc1ccc2[nH]cc(/C=N/NS(=O)(=O)c3ccccc3)c2c1` [5e, N’-[(E)-(5-methoxy-1H-indol-3-yl)methylidene]benzenesulfonohydrazide]: the MIC in assay [1] (setting [5]) was found to be 0.165 µM (≈ 0.0542 µg/mL).
As to `COc1ccc(/C=N/NS(=O)(=O)c2ccccc2)cc1OC` [5j, N’-[(E)-(3,4-dimethoxyphenyl)methylidene]benzenesulfonohydrazide], the values for the IC50 in assay [2] (setting [6]) and in assay [3] (setting [8]) were 47.4 ± 6.8 µM and 83.5 ± 7 µM, respectively. Further, the MIC in assay [1] (setting [7]) was 0.321 µM (≈ 0.103 µg/mL).
For the compound `COc1cc(/C=N/NC(=O)c2snnc2C)ccc1O` [3d, N’-[(E)-(4-hydroxy-3-methoxyphenyl)methylidene]-4-methyl-1,2,3-thiadiazole-5-carbohydrazide], the IC50 in assay [2] (HEK293, MTT, as assigned in running text, read-out: IC50, human embryonic kidney cells HEK-29) was 257 µM; in assay [3] (Fibroblast, MTT, as assigned in running text, read-out: IC50, mouse fibroblast cells CCL-1), 218 µM. Moreover, in assay [2] (as assigned in running text), the “selectivity index SI, HEK-293” value stood at 3516. In assay [1] (setting [5]), the MIC is less than 0.1 µM. Besides, the “selectivity index SI, CCL-1” value in assay [3] (as assigned in running text) is reported as 2979.
Regarding `Cc1nnsc1C(=O)N/N=C/c1c(Cl)c2ccccc2oc1=O` [3a, N’-[(E)-(4-chloro-2-oxo-2H-1-benzopyran-3-yl)methylidene]-4-methyl-1,2,3-thiadiazole-5-carbohydrazide], the MIC in assay [1] (setting [4]) was 0.3914 µM (≈ 0.137 µg/mL); in assay [1] (setting [5]) it was less than 0.4 µM.
On to `NNC(=O)c1ccncc1` [INH, isoniazid, reference compound], for which the MIC in assay [1] (setting [5]) worked out at 0.0343 µM (≈ 0.0047 µg/mL).
On to `O=S(=O)(N/N=C/c1c[nH]c2ccc(OCc3ccccc3)cc12)c1ccccc1` [5c], for which the IC50 amounted to 32.3 ± 1.5 µM in assay [2] (setting [6]) and 321 ± 16.2 µM in assay [3] (setting [8]). Besides, the MIC in assay [1] (setting [7]) was 0.343 µM (≈ 0.139 µg/mL).
In the case of `COc1ccc2c(c1)c(/C=N/NC(=O)c1snnc1C)cn2C` [3b, N’-[(E)-(5-methoxy-1-methyl-1H-indol-3-yl)methylidene]-4-methyl-1,2,3-thiadiazole-5-carbohydrazide], the MIC in assay [1] (setting [4]) is 0.3294 µM (≈ 0.108 µg/mL); in assay [1] (setting [5]), less than 0.4 µM.
Consider `O=S(=O)(N/N=C/C=C/c1ccccc1)c1ccccc1` [5k, N’-[(1E,2E)-3-phenylprop-2-en-1-ylidene]benzenesulfonohydrazid], for which the “selectivity index SI, HEK-293” value in assay [2] (as assigned in running text) came out at 3380. In assay [2], the “selectivity indices (SI)” value is reported as more than 1000. For the same compound, in assay [1] (setting [5]), the MIC is less than 0.1 µM. Besides, in assay [3] (as assigned in running text), the “selectivity index SI, CCL-1” value was 2216.
Consider `O=[N+]([O-])c1ccccc1/C=N/NS(=O)(=O)c1ccccc1` [5f, N’-[(E)-(2-nitrophenyl)methylidene]benzenesulfonohydrazide], for which the MIC in assay [1] (setting [5]) came to 0.305 µM (≈ 0.0932 µg/mL).
As for `COc1ccc2c(c1)c(/C=N/NS(=O)(=O)c1ccccc1)cn2C` [5b, N’-[(E)-(5-methoxy-1-methyl-1H-indol-3-yl)methylidene]benzenesulfonohydrazide], the MIC in assay [1] (setting [4]) is 0.2027 µM (≈ 0.0696 µg/mL); in assay [1] (setting [5]), less than 0.4 µM.
For the compound `O=[N+]([O-])c1ccc(/C=N/NS(=O)(=O)c2ccccc2)cc1` [5g, N’-[(E)-(4-nitrophenyl)methylidene]benzenesulfonohydrazide], in assay [2], the “selectivity indices (SI)” value is listed as more than 1000. Further, in assay [1] (setting [5]), the MIC is less than 0.1 µM.
With `O=S(=O)(N/N=C/c1ccc(Cl)cc1)c1ccccc1` [5i, N’-[(E)-(4-chlorophenyl)methylidene]benzenesulfonohydrazide], the IC50 in assay [2] (setting [6]) was determined as 100 ± 9.3 µM; in assay [3] (setting [8]), 131 ± 11.4 µM. The minimum inhibitory concentration (MIC) in assay [1] (setting [7]) stood at 0.147 µM (≈ 0.0434 µg/mL).
In the case of `Cc1nnsc1C(=O)N/N=C/c1c[nH]c2ccc(OCc3ccccc3)cc12` [3c, N’-((E)-[5-(benzyloxy)-1H-indol-3-yl]methylidene)-4-methyl-1,2,3-thiadiazole-5-carbohydrazide], the “selectivity index SI, HEK-293” value in assay [2] (as assigned in running text) amounted to 2242. Further, the “selectivity index SI, CCL-1” value in assay [3] (as assigned in running text) is reported as 4093.

The record behind these values is paper PMC9137698, “Development of New Antimycobacterial Sulfonyl Hydrazones and 4-Methyl-1,2,3-thiadiazole-Based Hydrazone Derivatives” (Antibiotics, 2022).
